Measurements taken from patent US6537804B1, “BCR-ABL directed compositions and uses for inhibiting Philadelphia chromesome stimulated cell growth” (Board of Regents, The University of Texas Systems, priority 1995, dated 2003).

Experiments:
Format in all cases: cell-based, human
p160 BCR = experiment: Immunokinase assay with anti-BCR (1256-1271) on oligonucleotide treated SUP-B15 cells
Procedure: (§1) SUP B15 cells were treated with anti-sense BCR oligonucleotides as in FIG. 12. Equal amounts of cells processed from sense and antisense treated cultures were harvested at day 7. Cells were analyzed for Bcr protein and Bcr/Bcr-Abl complexes by assaying with an antibody to the carboxy terminal of Bcr, as described (Liu et al., 1993). Lane 1 is an SDS gel pattern of the sense treated culture; lane 2 is the assay performed with peptide-blocked antibody. Lane 3 is the pattern from anti-sense treated culture; lane 4 is the peptide-blocked control. […] Quantitation measurements indicate that the level of Bcr protein was reduced about 10-fold by antisense treatment compared to sense, when normalized for the amount of Abl protein in the cultures.
The effects of the sense and antisense 3′ BCR oligonucleotides were tested on BCR expression in SUP-B15 cells, a cell line derived from a Ph^1-positive acute lymphocytic leukemia patient that expresses p185 BCR-ABL. Immunokinase assays were performed with anti-BCR (1256-1271) peptide antibody (the antibody detects Bcr proteins but not Bcr-Abl proteins) to determine the level of BCR expression in B15 cells after 7 days treatment with either the sense or antisense 3′ BCR oligonucleotides (FIG. 13, lanes 1 and 3).
(§2) These antibodies detect Bcr directly but not Bcr-Abl protein. However because Bcr can complex with Bcr-Abl, this assay also detects Bcr-Abl which is co-precipitated along with Bcr.
Incubation of these immune complexes with labeled ATP causes tyrosine phosphorylation of Bcr by Bcr-Abl and autophosphorylation of Bcr-Abl (Liu et al., 1993). […] Using Abl Western blot data as an internal control for mass, the specific reduction in Bcr is estimated to be about 10-fold.

M3.16 cells = experiment: Growth of M3.16 cells, trypan blue exclusion; conditions: DMEM 10% FCS, 10 μM at day 1, half at day 5, light microscopy at day 9
Procedure: FIG. 20B, M3.16 cells cultured in 10% FCS containing DMEM media with either the 3′ BCR antisense oligonucleotides (open squares) or the sense oligonucleotide (closed squares) as above. Oligonucleotides were added at day 1 at a final concentration of 10 μM and added again at day 5 at half of the initial concentration. Cell viability was determined by trypan blue dye exclusion. The data are the mean +/−SEM of a triplicate analysis.
For this particular study, the cell number was followed up for a longer period of time (11 days) and oligonucleotides were added again at day 5 at half of the initial concentration.

c-Abl = experiment: Western blotting with anti-Abl monoclonal antibody 8E9 of treated SUP-B15 cells
Procedure: (§3) SUP-B15 cells express p185 BCR-ABL; they were derived from a patient with Philadelphia chromosome-positive ALL. One-tenth of the cells harvested in the study shown in FIG. 13 was assayed for Bcr-Abl expression by Western blotting with the anti-Abl monoclonal antibody 8E9. […] Similarly, the Abl protein was reduced about 26% in the anti-sense treated culture compared to sense. Quantitation was done by a densitometer SI unit (Molecular Dynamics).
Using c-Abl as an internal control, the actual reduction of p160 BCR in B15 cells by the antisense treatment is about 10 fold.

SUP-B15 cells [1] = experiment: Growth of SUP-B15 cells, trypan blue exclusion
Procedure: FIG. 20A, B15 cells cultured in 20% FCS containing RPMI media with either the 3′ BCR antisense oligonucleotides (10 μM at day 1) (open squares) or the sense oligonucleotides (10 μM at day 1) (closed squares).
The biological effects of the 3′ BCR antisense oligonucleotide treatment were tested on SUP-B15 cells. SUP-B15 cells were seeded in triplicate wells at a concentration of 1.6×10^5 cells/ml in a 200 μl volume of RPMI media supplemented with 20% FCS. Oligonucleotides were added to the cells at a final concentration of 10 μM. Cell number was monitored by trypan blue exclusion assay for 9 days. The mean cell number of the triplicates was determined each day (FIG. 20A).

[2] = test system: p160 BCR/p185 BCR-ABL complexes; experiment: Co-precipitated Bcr-Abl in anti-BCR (1256-1271) immunokinase assay of treated SUP-B15 cells; conditions: antisense compared to sense treated
Procedure: as §1
(§4) In this study, equal amounts of the sense and the antisense oligonucleotide treated B15 cells were analyzed.
as §2

P185 BCR-ABL = experiment: Western blotting with anti-Abl monoclonal antibody 8E9 of treated SUP-B15 cells
Procedure: as §3, §4

SUP-B15 cells [3] = experiment: Survival of SUP-B15 cells in low serum, trypan blue exclusion; conditions: 5% FCS, 10 μM
Procedure: SUP-B15 cells (2×10^6 cells) were maintained in RPMI medium containing 5% fetal calf serum. Cells will not grow under these conditions and will slowly die off since cell growth requires 20% serum. Cells were treated with the 3′ BCR anti-sense (open squares) or sense oligo (closed squares) at a concentration of 10 μM. The number of viable cells was determined by trypan blue dye exclusion. The data are expressed as the mean (+/−SEM) of three replicates.
B15 cells were cultured in a low serum containing media [5% fetal calf serum (FCS)]. These cells normally require 20% FCS. A batch of B15 cells (2.2×10^6/ml) was cultured in RPMI containing 5% FCS. 200 μl of this suspension was seeded into each well of a 96 well culture plate. Either the antisense or sense oligonucleotides were added to the culture at a final concentration of 10 μM. The cell numbers were determined as an average of the triplicates and plotted in FIG. 14.

## 5′ATCATCACCGACACATCC 3′ (phosphotriester linkages at both ends, further chemistry not given here) [3′ BCR antisense oligonucleotide]
p160 BCR; 7 days treatment
  Level of BCR protein, antisense compared with sense treated cells: much lower levels
p160 BCR; day 7, antisense compared to sense
  Reduction of p160 BCR normalized for the amount of Abl protein (c-Abl as internal control): about 10 fold
p160 BCR; day 7, densitometer quantitation of FIG. 13 lanes 1 and 3
  Reduction of p160 BCR, antisense versus sense treated cells: about 14 times
p160 BCR; seven days, phosphorimager analyses
  Reduction of the amount of Bcr by anti-sense: about 14 fold
M3.16 cells
  Confluence compared to sense treated cells: more confluent
c-Abl; Western blot 8E9, densitometer
  Reduction in Abl protein, anti-sense compared to sense: about 26%
c-Abl; quantitation of FIG. 12
  Reduction of c-Abl level, antisense versus sense treated cells: ~1.35 fold
SUP-B15 cells [1]; RPMI 20% FCS, 10 μM, 9 days
  Growth density compared to sense oligonucleotide treatment: sustained a higher growth density
SUP-B15 cells [1]; seven days in culture
  Live cells relative to sense treated cultures: twice
[2]
  Amount of p160 BCR/p185 BCR-ABL complexes: reduced
P185 BCR-ABL; Western blot 8E9, densitometer
  Reduction in Bcr-Abl protein, anti-sense compared to sense: 35%
P185 BCR-ABL; Western blot with anti-Abl monoclonal antibody
  Expression of p185 BCR-ABL: not significantly altered
P185 BCR-ABL; quantitation of FIG. 12
  Reduction of Bcr-Abl level, antisense versus sense treated cells: about 1.6 fold
SUP-B15 cells [3]
  Survival compared to sense oligonucleotide treatment: increased survival
SUP-B15 cells [3]; after five days of treatment
  Number of viable cells relative to sense-treated cells: about twice
